The values below come from patent US20210267986A1, “THERAPEUTIC REGIMENS FOR TREATMENT OF CANCER USING ERIBULIN AND SELECTIVE CDK4/6 INHIBITOR COMBINATIONS” (G1 Therapeutics, Inc., priority 2018, published 2021).

Some results are limits rather than exact numbers.

Data set [1] relates to lineage negative (Lin−) bone marrow cells (HSPC). Kind of data set: EdU incorporation by flow cytometry in MCF7 tumor-bearing mice, bone marrow. Format: in vivo. The note with it: single dose IP 100 mg/kg. The method, then:
(§1) FIG. 2A is a graph depicting the percentage of EdU positive MCF7 tumor cells vs. Edu positive Lin^− bone marrow cells from MCF7 tumor bearing mice treated with Compound 1 at 4, 12, 24, and 48 hours post treatment. MCF7 tumor cells are on the left at each time point while Lin- bone marrow cells are on the right at each time point. FIG. 2B is a graph depicting the percentage of EdU positive MCF7 tumor cells vs. Edu positive Lin^− bone marrow cells from MCF7 tumor bearing mice treated with Compound 1 at 4, 12, 24, and 48 hours post treatment normalized to baseline. MCF7 tumor cells are on the left at each time point while Lin- bone marrow cells are on the right at each time point.
(§2) MCF7 tumor-bearing mice were treated with a single dose of Compound 1 (IP, 100 mg/kg) or vehicle control. After 4, 12, 24, and 48 hours of treatment, animals were pulsed with 5-ethynyl-2′-deoxyuridine (EdU; IP, 200 […]g). Tumors and femurs from each animal were harvested after 4 hours of EdU dosing and processed to single cell suspensions for detection of EdU+ cells by flow cytometry. HSPC in bone marrow is defined as cell populations negative for lineage markers (Mac-1, Gr-1, Ter119, B220, CD4, CD8). […] Students T tests were completed to compare % EdU+ cells (tumor vs bone marrow) at baseline in panel A ****p≤0.0001.

The subject of data set [2] is MDA-MB-231 breast cancer xenograft. Kind of data set: MDA-MB-231 xenograft, weekly Compound 1 30 minutes prior to eribulin, tumor volume. In kind it is in vivo, mice. The method, then:
The graphs represent mean tumor volume over time. The y-axis is tumor volume measured in cubic millimeters. The x-axis is time measured in days. The dotted line represents dates of weekly treatment. The error bars represent standard error of the mean.
A highly CDK4/6 dependent breast cancer xenograft model (MDA-MB-231) was employed to determine whether transient CDK4/6 inhibition with Compound 1 would antagonize the intended therapeutic effects. First, MD-MB-231 tumor-bearing mice were treated daily with Compound 1 (IP, 100 mg/kg, n=6-8) for 28 days to confirm the CDK4/6 dependency of the xenograft model. Next, MDA-MB-231 tumor-bearing mice were treated with eribulin (IV, 0.5 mg/kg) with or without Compound 1 (IP, 100 mg/kg) weekly for three weeks, with Compound 1 being given 30 minutes prior to chemotherapy treatment. In all experiments, tumors were measured, and tumor volume was calculated twice weekly. […] Therefore, Compound 1 can be administered to preserve hematopoietic stem and progenitor cell (HSPC) and immune system function during eribulin therapy without antagonizing the intended anti-tumor efficacy of eribulin.

A further data set relates to MCF7 tumor cells. The experiment in a line: EdU incorporation by flow cytometry in MCF7 tumor-bearing mice, tumor cells. In kind it is in vivo. The note with it: single dose IP 100 mg/kg. The method, then: as §1, §2
The test system of data set [3] is MDA-MB-231 breast cancer xenograft. The experiment in a line: MDA-MB-231 xenograft, daily Compound 1 with weekly eribulin, tumor volume. Format: in vivo, mice. The method, then:
The y-axis is tumor volume measured in cubic millimeters. The x-axis is time measured in days. The dotted line represents dates of weekly treatment. The error bars represent standard error of the mean.
A highly CDK4/6 dependent breast cancer xenograft model (MDA-MB-231) was employed to determine whether continuous CDK4/6 inhibition with Compound 1 would antagonize the intended therapeutic effects of eribulin. First, MDA-MB-231 tumor-bearing mice were treated daily with Compound 1 (IP, 100 mg/kg, n=10) for 28 days to confirm the CDK4/6 dependency of the xenograft model. Next, MDA-MB-231 tumor-bearing mice were treated with eribulin (IV, 0.5 mg/kg, n=10) weekly for three weeks. Next, MDA-MB-231 tumor-bearing mice were treated daily with Compound 1 (IP, 100 mg/kg, n=10) and with eribulin (IV, 0.5 mg/kg, n=10) weekly for three weeks, with Compound 1 being given 30 minutes prior to chemotherapy treatment on days 1, 8, and 15. In all experiments, tumors were measured, and tumor volume was calculated twice weekly. The dosing schedule is shown below in Table 1. […] Therefore, Compound 1 can be administered to preserve hematopoietic stem and progenitor cell (HSPC) and immune system function during eribulin therapy without antagonizing the intended anti-tumor efficacy of eribulin.

For data set [4] the following is noted: patients receiving eribulin; cited from earlier work.
Setting [5] is: Lin− bone marrow cells, post treatment.
[6] abbreviates: MCF7 tumor cells, post treatment.

As for `CN1CCN(c2ccc(Nc3ncc4cc5n(c4n3)C3(CCCCC3)CNC5=O)nc2)CC1` [Compound 1, 2′-((5-(4-methylpiperazin-1-yl)pyridin-2-yl)amino)-7′,8′-dihydro-6′H-spiro(cyclohexane-1,9′-pyrazino(1′,2′: 1,5)pyrrolo(2,3-d)pyrimidin)-6′-one], the “G1-arrest of hematopoietic stem cells” value in data set [1] is recorded as “nearly universal G1-arrest”. The “time of maximal cell cycle inhibition (% EdU+ normalized to baseline)” value (in data set [1] (setting [5]); with MCF7 tumor cells (setting [6])) was 24 h in each case. For the same molecule, the “time of reentering the cell cycle” value (in data set [1] (setting [5]); with MCF7 tumor cells (setting [6])) was at most 48 h in each case. The “effect of Compound 1 on eribulin therapy (tumor volume)” value in data set [2] (Compound 1 IP 100 mg/kg 30 minutes prior to eribulin IV 0.5 mg/kg, weekly for three weeks, compared to eribulin alone) is given as “no antagonist effect”. Besides, the “anti-tumor effect of Compound 1 alone” value in data set [2] (IP 100 mg/kg, dosed on a similar schedule as in combination with eribulin (weekly for three weeks)) is given as “did not demonstrate any significant anti-tumor effect”; in data set [3] (IP 100 mg/kg daily for 28 days) it was “did demonstrate a significant anti-tumor effect”. For the same molecule, the “cell cycle status of tumor cells after Compound 1” value in the data set with MCF7 tumor cells (S/G2/M) was “a significant fraction of tumor cells are past the G1 checkpoint”. Also, the “effect of continuous Compound 1 on eribulin therapy (tumor volume)” value in data set [3] (Compound 1 IP 100 mg/kg daily for 28 days plus eribulin IV 0.5 mg/kg weekly for three weeks, compared to eribulin alone) is “synergistic effect”.

On to `C=C1C[C@@H]2CC[C@@]34C[C@H]5O[C@H]6[C@@H](O3)[C@H]3O[C@H](CC[C@@H]3O[C@H]6[C@H]5O4)CC(=O)C[C@@H]3[C@@H](OC)[C@@H](C[C@H](O)CN)O[C@H]3C[C@H]3O[C@@H](CC[C@@H]1O2)C[C@@H](C)C3=C` [eribulin], for which the “incidence of >grade 3 neutropenia” value in data set [4] is “around 57%”.
